Measurements: patent US20090041751A1, “Sepsis Prevention Through Adenosine Receptor Modulation” (priority 2005, published 2009)
Entries after “also recorded” stand apart in the source; their conditions may differ.

Columns and labels:
mice subjected to CLP = assay: Survival after cecal ligation and puncture (CLP)-induced sepsis; format: in vivo, mouse; conditions: CD-1 mice
From the text: For pharmacological studies with the selective A2A receptor antagonist 4-(2-[7-amino-2-(2-furyl)[1,2,4]triazolo[2,3-a][1,3,5]triazin-5-ylamino]ethyl)phenol(4-(2-[7-amino-2-(2-furyl[1,2,4]-triazolo[2,3-a[1,3,5]triazin-5-yl-aminoethyl)phenol (“ZM241385”); Tocris Cookson Inc.), male CD-1 mice were used that were purchased from Charles River Laboratories.
Polymicrobial sepsis was induced by subjecting mice to CLP, as we have described previously, with some modifications. Six-to-eight-week-old male A2a receptor KO or WT mice were anesthetized with Nembutal (80 mg/kg), given i.p. Under aseptic conditions, a 2-cm midline laparotomy was performed to allow exposure of the cecum with adjoining intestine. Approximately two-thirds of the cecum was tightly ligated with a 3.0 silk suture, and the ligated part of the cecum perforated twice (through and through) with a 20-gauge needle (Beckton Dickinson). The cecum was then gently squeezed to extrude a small amount of feces from the perforation sites. The cecum was then returned to the peritoneal cavity and the laparotomy closed in two layers with 4.0 silk sutures. Sham-operated animals underwent the same procedure without ligation or puncture of the cecum. The mice were resuscitated with 1 ml of physiological saline injected s.c., and returned to their cages with free access to food and water. One group of mice was monitored daily and survival recorded for 10 days. Another group of mice was re-anesthetized with Nembutal (80 mg/kg; i.p.) 16 or 48 hours after the operation, and blood, peritoneal lavage fluid, and various organs were harvested as described below.
The effect of pharmacological inactivation of A2A receptors in mice subjected to CLP was evaluated using CD-1 mice in a similar fashion to that described for the A2A receptor KO or WT mice. […]
Survival curves were analyzed using the two-tailed Fisher's exact test. […]

[1] = test system: IL-10, IL-6, MIP-2, IL-12; assay: Cytokine levels (ELISA) in plasma and peritoneal lavage fluid after CLP; format: in vivo, mouse
Description: The effect of pharmacological inactivation of A2A receptors in mice subjected to CLP was evaluated using CD-1 mice in a similar fashion to that described for the A2A receptor KO or WT mice. In this set of experiments, the mice were injected immediately before or 2 hours after the operation and every 12 hours thereafter with 4-(2-[7-amino-2-(2-furyl[1,2,4]-triazolo[2,3-a[1,3,5]triazin-5-yl-aminoethyl)phenol (“ZM241385”) (15 mg/kg, s.c.) or its vehicle (DMSO). Blood samples were obtained aseptically by cardiac puncture using heparinized syringes after opening the chest and placed on ice into heparinized Eppendorf tubes until further processing for hematological and bacteriological analysis. Aliquots of whole blood were analyzed for hematology by flow cytometry (CELL-DYN 3200 System, Abbott Laboratories) in a centralized facility. After serial dilutions for bacteriological analysis were made (see below), the blood was centrifuged at 2000×g for ten minutes and the recovered plasma stored at −70° C. until further use. For peritoneal lavage, the abdominal skin was cleansed with 70% ethanol and the abdominal wall exposed by opening the skin. Four milliliters of sterile physiological saline was then installed into the peritoneal cavity via an 18-gauge needle. The abdomen was massaged gently for 1 minute while keeping the tip of the needle in the peritoneum, after which procedure peritoneal fluid was recovered through the needle. Recovered peritoneal lavage fluid was placed on ice until processed for bacteriological examination. After serially diluting the peritoneal lavage fluid to determine CFU numbers (see below), the peritoneal lavage fluid was centrifuged at 5000×g for ten minutes and the supernatant stored at −70° C. until further analysis. Samples from spleen, thymus, lung, kidneys, and liver were excised and either immediately frozen in liquid nitrogen or placed in 10% paraformaldehyde for subsequent histological analysis. Snap-frozen tissue samples were transferred to a −70° C. refrigerator until analyzed for gene expression and apoptotic markers. Concentrations of IL-10, IL-6, IL-12 p70, TNF-α and MIP-2, in plasma or peritoneal lavage fluid were determined using commercially available ELISA kits (R&D Systems) and according to the manufacturer's instructions. The lower detection limit for all these cytokines was 10 pg/ml. Plasma concentrations of AST, ALT, and BUN were analyzed using standard laboratory procedures. Survival curves were analyzed using the two-tailed Fisher's exact test. Two-tailed t testing was used to compare cytokine concentrations, CFUs, and other laboratory parameters. Statistical significance was assigned to p values smaller than 0.05.

[2] = 15 mg/kg s.c. twice daily, 16 hours after CLP, FIG. 6C
[3] = 15 mg/kg s.c. twice daily, 16 hours after CLP, FIG. 6D
[4] = 15 mg/kg s.c. twice daily, 16 hours after CLP, FIG. 6E
[5] = mouse CLP sepsis model, FIG. 10, matrix not stated

Nc1nc(NCCc2ccc(O)cc2)nc2nc(-c3ccco3)nn12 [ZM241385]
survival after CLP vs vehicle-treated mice, delayed administration (mice subjected to CLP; 15 mg/kg s.c. twice daily starting 2 hours after resuscitation, survival monitored 5 days, FIG. 6B, 15 mg/kg): still protective; also recorded: protects mice from death
survival after CLP vs vehicle-treated mice (mice subjected to CLP; 15 mg/kg s.c. twice daily starting at time of resuscitation (time 0), survival monitored 5 days, FIG. 6A, 15 mg/kg): significantly improved survival; also recorded: protects mice from death
survival after CLP (mice subjected to CLP; survival recorded for 2 days, FIG. 9): improved survival
IL-10 level in peritoneal lavage fluid vs vehicle-treated mice [1, 2]: decreased
IL-10 level in plasma vs vehicle-treated mice [1, 2]: decreased
IL-6 concentration in plasma vs vehicle-treated mice [1, 3]: comparable
IL-6 level in peritoneal fluid vs vehicle-treated mice [1, 3]: lower; also recorded: attenuated
MIP-2 level in peritoneal lavage fluid vs vehicle-treated mice [1, 4]: decreased
MIP-2 level in plasma vs vehicle-treated mice [1, 4]: decreased
IL-10 levels vs vehicle treated mice [1, 5]: Decreased levels
IL-12 concentrations vs vehicle treated mice [1, 5]: comparable
MIP-2 levels vs vehicle treated mice [1, 5]: Decreased levels
